Laboratory results: the NIST ThermoML archive (doi:10.1021/je049595u)

Assay: molar heat capacity at saturation pressure

Cc1cccc2cccnc12 [8-methylquinoline]
molar heat capacity [J/K/mol], Vacuum adiabatic calorimetry
Conditions | Crystal | Liquid
83.66 K | 63.9 | –
86.44 K | 65.46 | –
90 K | 67.47 | –
91.89 K | 68.5 | –
94.09 K | 69.68 | –
100 K | 72.87 | –
100.75 K | 73.28 | –
103.06 K | 74.5 | –
112.71 K | 79.57 | –
120 K | 83.32 | –
123.65 K | 85.25 | –
135.63 K | 91.49 | –
140 K | 93.7 | –
147.53 K | 97.64 | –
160 K | 104.11 | –
160.44 K | 104.42 | –
170 K | – | 184.91
174.36 K | 111.83 | –
175.64 K | 112.44 | –
175.79 K | – | 185.73
180 K | 114.69 | 186.36
181.22 K | – | 186.55
186.72 K | – | 187.58
186.91 K | 118.52 | –
188.79 K | 119.55 | –
199.75 K | 125.65 | –
200 K | 125.52 | 190.48
203.2 K | 127.63 | –
212.46 K | 132.96 | –
215.19 K | 134.54 | –
220 K | 136.62 | 195.81
224.46 K | 140.5 | –
225.29 K | 140.97 | –
232.54 K | – | 199.61
235.37 K | 150.91 | –
238.7 K | – | 201.71
240 K | 147.98 | 202.12
245.88 K | – | 204
246.94 K | 151.99 | 204.38
253.58 K | – | 206.7
253.72 K | – | 206.81
254.07 K | – | 206.89
256.36 K | – | 207.75
257.67 K | – | 208.16
260 K | – | 208.99
265.24 K | – | 210.84
269.69 K | – | 212.52
280 K | – | 216.4
282.82 K | – | 217.48
296.93 K | – | 222.97
298.15 K | – | 223.45
300 K | – | 224.18
310.97 K | – | 228.56
312.23 K | – | 229.08
320 K | – | 232.22
326.77 K | – | 234.98
340 K | – | 240.4
341.89 K | – | 241.17
357.58 K | – | 247.68
360 K | – | 248.69
373.8 K | – | 254.38
380 K | – | 256.96
389.63 K | – | 260.93
400 K | – | 265.18
405.69 K | – | 267.5
420 K | – | 273.33
422.45 K | – | 274.32
437.11 K | – | 280.26
440 K | – | 281.4

Liquid
Conditions | molar heat capacity [J/K/mol]
460 K | 289.36
480 K | 297.35
500 K | 305.31
520 K | 313.17
540 K | 320.92
560 K | 328.51
580 K | 335.9
600 K | 343.02
620 K | 349.87
640 K | 356.47
660 K | 362.89
680 K | 369.38
700 K | 376.44
